# Tested on: Citrobacter freundii 009
# Experiment: Impact of cellobiose on colony coloration, Citrobacter freundii 009
# Type: cell-based
# Conditions: cellobiose 0.5 g/l in medium combining the glucuronide and galactoside substrates
# Text: The coloration of these colonies is noted.
smiles,measurement,value
O=C[C@H](O)[C@@H](O)[C@H](O[C@@H]1O[C@H](CO)[C@@H](O)[C@H](O)[C@H]1O)[C@H](O)CO [cellobiose],distinction of the Citrobacter 009 strain from the E. coli strains,makes it possible to distinguish the Citrobacter 009 strain more clearly from the E. coli strains
